Patent US11419953B2, “Reduced metastable complex macrocyclic contrast agents” (INVENTURE, LLC, priority 2020, dated 2022)

Columns and labels:
[1] = Free Gd3+ release in vitro, comparative data (Example 6); assay type: physicochemical; settings: after 30 minutes at standard dosing
[2] = commercial product stored in bottle; cited from earlier work
[3] = cited from earlier work

SMILES	In Vitro PPM (free GAD released) [1]	in-bottle measured free gadolinium [2]	stability lower at pH 7.4 than for the fully deprotonated complex [3]
CNC[C@H](O)[C@@H](O)[C@H](O)[C@H](O)CO.O=C([O-])CN1CCN(CC(=O)[O-])CCN(CC(=O)O)CCN(CC(=O)[O-])CC1.[Gd+3] [DOTAREM, gadoterate meglumine]	1,204 +/− 3.9 PPM		
O=C([O-])CN1CCN(CC(=O)[O-])CCN(CC(=O)[O-])CCN(CC(=O)[O-])CC1.[Gd+3] [Gd-DOTA]		10^13 Gd3+ ions in 100 ml of GCA product	7 orders of magnitude
